Like-named read-outs stand apart in the source and are kept apart here.
Test system: Raf-1^gof intestinal tumors
Conditions: for Log2 (fold) of luciferase activity relative to DMSO controls / Fold (luciferase activity relative to DMSO controls): ICCB compounds fed in vials to flies with one-day old Raf-1^gof tumors
[1] = screen of 480 ICCB compounds in vials, compounds fed to flies with one-day old Raf-1^gof tumors, assessed three days later, esg-Gal4 luciferase
[2] = screen of 480 ICCB compounds in vials, compounds fed to flies with one-day old Raf-1^gof tumors, assessed three days later, esg-Gal4 luciferase, averaged from multiple wells
[3] = assessed three days later, averaged from multiple wells
Throughout, for Fold (luciferase activity relative to DMSO controls): test concentration or dose not given here.
Throughout, for Fold (luciferase activity, fold difference relative to DMSO controls): test concentration or dose not given here.
Throughout, for Log2 (fold) (luciferase activity, log2 of the fold difference relative to DMSO controls): test concentration or dose not given here.
Throughout, for Log2 (fold) of luciferase activity relative to DMSO controls: test concentration or dose not given here.

Molecule | Log2 (fold) (luciferase activity, log2 of the fold difference relative to DMSO controls) [1] | Fold (luciferase activity, fold difference relative to DMSO controls) [2] | Log2 (fold) of luciferase activity relative to DMSO controls (assessed three days later) | Fold (luciferase activity relative to DMSO controls) [3] | also measured
O=C1NC(=O)C(c2ccccc2)(c2ccccc2)N1 [PHENYTOIN] | −0.300 | 0.812 |  |  | 
CCCCC/C=C\C/C=C\CCCCCCCCCC(=O)O [EICOSADIENOIC ACID (20:2 n-6)] |  |  | −0.093 | 0.938 fold | 
CCCCc1oc2ccccc2c1C(=O)c1cc(I)c(OCCN(CC)CC)c(I)c1 [AMIODARONE] |  |  | 0.102 | 1.074 fold | 
CCCCCCCCCCCCCCCCOC[C@H](COP(=O)([O-])OCC[N+](C)(C)C)OC(=O)NC [C-PAF] |  |  | 0.119 | 1.086 fold | 
O=C(O)CCC/C=C\C[C@H]1C(=O)C[C@@H](O)[C@@H]1/C=C/[C@@H](O)CCc1ccccc1 [17-PHENYL-TRINOR-PGE2] | −0.253 | 0.839 |  |  | 
O=C1CCc2c(ccc3ccccc23)O1 [Splitomycin] | −0.241 | 0.846 |  |  | 
CCCCCCCCCCCCCCCCCCOCC(COP(=O)([O-])OCC[N+](C)(C)C)OC (stereo not shown) [1-OCTADECYL-2-METHYLGLYCERO-3 PC] | −0.538 | 0.689 |  |  | 
CCCCCCCCCCCCCCCC(=O)N[C@H](CN1CCOCC1)[C@H](O)c1ccccc1 (racemic) [DL-PPMP] |  |  | 0.108 | 1.078 fold | 
O=C(O)CNC(=O)C(CS)Cc1ccccc1 (stereo not shown) [Thiorphan] | −0.673 | 0.627 |  |  | 
CCOC(=O)C(C)(C)Oc1ccc(Cl)cc1 [CLOFIBRATE] |  |  | 0.221 | 1.165 fold | 
CCCCCc1cc(O)c2c(c1)OC(C)(C)C1CCC(C(=O)O)=CC21 (stereo not shown) [TETRAHYDROCANNABINOL-7-OIC ACID] | −0.240 | 0.847 |  |  | 
CC/C=C\C/C=C\C/C=C\C/C=C\C/C=C\C/C=C\CCC(=O)O [DOCOSAHEXAENOIC ACID (22:6 n-3)] | −0.248 | 0.842 |  |  | 
NC(=O)c1cccc(N)c1 |  |  | −0.160 | 0.895 fold | 
CC(C)(c1ccc(OCC2CO2)cc1)c1ccc(OCC2CO2)cc1 (stereo not shown) [BADGE] |  |  | 0.345 | 1.270 fold | 
O=S(=O)(c1cccc2cnccc12)N1CCCNCC1 [HA1077] | −0.326 | 0.798 |  |  | 
C=C[C@H]1C[N@@]2CC[C@H]1C[C@@H]2[C@@H](O)c1ccnc2ccc(OC)cc12 [QUINIDINE] | −0.351 | 0.784 |  |  | 
CN1C(C(=O)Nc2ccccn2)=C(O)c2ccccc2S1(=O)=O [piroxicam] |  |  | 0.147 | 1.107 fold | 
C#CCN(C)C(C)Cc1ccccc1 (stereo not shown) [Deprenyl] | −0.642 | 0.641 |  |  | 
Cc1ccc(S(=O)(=O)NC(=O)NN2CCCCCC2)cc1 [TOLAZAMIDE] | −0.365 | 0.776 |  |  | 
PROSTAGLANDIN J2 | −0.525 | 0.695 |  |  | 
CCCCC/C=C\C[C@@H](O)/C=C/c1cccc(C[C@@H](O)CCCCO)n1 [U-75302] |  |  | −0.041 | 0.972 fold | 
CC[C@@]1(O)C(=O)OCc2c1cc1n(c2=O)Cc2cc3cc(O)ccc3nc2-1 [10-hydroxycamptothecin, reference compound] | −0.930 | 0.525 |  |  | Fold (Table 3 summary of hits, Screen ICCB, luciferase relative to DMSO, fed three consecutive days in vials): 0.525 fold
CC[C@H](CO)Nc1nc(NCc2ccccc2)c2ncn(C(C)C)c2n1 [roscovitine] |  |  |  |  | Fold (luciferase activity, fold difference relative to DMSO controls) (in vivo): 0.659; Log2 (fold) (luciferase activity, log2 of the fold difference relative to DMSO controls) (in vivo): −0.602
CCCCC/C=C\C/C=C\CCCCCCCC(=O)OC(CO)COC(=O)CCCCCCCCCCCCCCCCC (stereo not shown) [1-STEAROYL-2-LINOLEOYL-GLYCEROL] | −0.456 | 0.729 |  |  | 

Reference: patent publication US20130096067A1, “DROSOPHILA TUMOR STEM CELL MODEL AND USES THEREOF” (priority 2011, published 2013)
